The compounds below were run against Adenosylhomocysteinase (Homo sapiens, UniProt P23526) (assay: In vitro inhibitory activity against recombinant S-adenosyl-L-homocysteine hydrolase obtained from human placenta).
Adenosylhomocysteinase, sequence (P23526 whole entry): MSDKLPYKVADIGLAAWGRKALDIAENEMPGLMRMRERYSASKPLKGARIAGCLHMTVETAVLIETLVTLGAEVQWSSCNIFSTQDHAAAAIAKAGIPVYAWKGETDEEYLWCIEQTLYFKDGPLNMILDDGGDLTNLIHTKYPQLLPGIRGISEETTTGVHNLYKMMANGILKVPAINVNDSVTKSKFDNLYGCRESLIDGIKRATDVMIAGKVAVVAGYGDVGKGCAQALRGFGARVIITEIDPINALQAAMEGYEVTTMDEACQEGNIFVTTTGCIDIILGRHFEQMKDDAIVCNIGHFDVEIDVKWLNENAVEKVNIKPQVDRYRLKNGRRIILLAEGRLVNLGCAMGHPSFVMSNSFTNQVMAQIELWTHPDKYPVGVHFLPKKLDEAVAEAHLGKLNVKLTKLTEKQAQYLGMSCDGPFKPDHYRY

Structure (SMILES) | IC50 [µM]
Nc1ncnc2c1ncn2[C@@H]1C(F)=C[C@@H](O)[C@H]1O | 8.9
Nc1ncnc2c1ncn2[C@@H]1C=C(CO)[C@@H](O)[C@H]1O [NEOPLANOCIN A] | 0.89
Nc1ncnc2c1ncn2[C@@H]1C(F)=C(CO)[C@@H](O)[C@H]1O [FLUORO-NEPLANOCIN A] | 0.47
Nc1ncnc2c1ncn2[C@@H]1C=C[C@@H](O)[C@H]1O | 8.7
